Experimental data: patent US10294212B2 (CURADEV PHARMA PRIVATE LTD., priority 2013, dated 2019)

Legend:
[1] = molecular target: Human indoleamine 2,3-dioxygenase1 (hIDO1) (Homo sapiens (Human), UniProt P14902); assay: In-vitro IDO1 enzyme assay (conversion of L-tryptophan to KYN); type: biochemical; details: read-out: IC50 (IDO1) Enz
Procedure, shortened: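 Kynurenine formation quantified by HPLC absorbance at 360 nm or LC/MS/MS after TCA quench and 15 min at 65 °C. Reaction: 10 nM N-His hIDO1, 30 μM tryptophan, ascorbate/methylene blue/catalase, pH 6.5 phosphate buffer, 37 °C for 30 min. Inhibition relative to 1% DMSO vehicle, fitted to IC50.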

IDO1 in HeLa cells = IDO1 in HeLa cells (Homo sapiens (Human), UniProt P14902); assay: HeLa cell based IDO1 assay (IFNγ-induced, KYN in supernatant)
IDO1 in HeLa cells, sequence (P14902 whole entry): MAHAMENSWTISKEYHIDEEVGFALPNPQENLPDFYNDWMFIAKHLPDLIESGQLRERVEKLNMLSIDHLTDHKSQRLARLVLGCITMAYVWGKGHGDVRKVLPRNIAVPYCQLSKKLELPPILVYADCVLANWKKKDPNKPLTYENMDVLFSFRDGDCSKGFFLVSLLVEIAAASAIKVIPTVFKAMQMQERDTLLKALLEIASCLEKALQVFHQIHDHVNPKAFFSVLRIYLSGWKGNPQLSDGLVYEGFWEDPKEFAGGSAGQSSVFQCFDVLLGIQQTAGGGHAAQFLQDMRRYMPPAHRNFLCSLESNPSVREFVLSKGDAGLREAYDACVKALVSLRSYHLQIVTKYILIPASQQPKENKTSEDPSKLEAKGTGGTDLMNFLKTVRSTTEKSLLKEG
Procedure, shortened: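 Kynurenine in the supernatant, quantified by C-18 HPLC with 360 nm absorbance after TCA hydrolysis (65 °C, 15 min), was the read-out. Compounds (typically 10 μM to 1 nM) were added in HBSS containing 80 μM tryptophan to HeLa cells pre-induced overnight with 50 ng/mL IFNγ. IC50 came from nonlinear fits of % inhibition versus 1% DMSO vehicle.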

[2] = molecular target: Human TDO (hTDO)-transfected CHO-K1 cells (Homo sapiens (Human), UniProt P48775); assay: CHO-K1 cell based TDO assay; details: hTDO cellular assay
Human TDO (hTDO)-transfected CHO-K1 cells, sequence (P48775 whole entry): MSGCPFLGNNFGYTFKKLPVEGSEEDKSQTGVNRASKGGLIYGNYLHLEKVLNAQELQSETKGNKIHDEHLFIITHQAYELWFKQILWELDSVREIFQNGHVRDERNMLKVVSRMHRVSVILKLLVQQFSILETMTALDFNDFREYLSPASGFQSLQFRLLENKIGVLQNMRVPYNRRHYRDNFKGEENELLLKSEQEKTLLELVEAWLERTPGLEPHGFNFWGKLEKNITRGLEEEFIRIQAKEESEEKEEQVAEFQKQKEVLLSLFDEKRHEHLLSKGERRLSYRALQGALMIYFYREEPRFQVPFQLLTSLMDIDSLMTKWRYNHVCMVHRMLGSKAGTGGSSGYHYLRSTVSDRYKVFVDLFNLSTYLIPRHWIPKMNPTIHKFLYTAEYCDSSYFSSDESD
Procedure, shortened: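 Kynurenine output was read by LC/MS/MS after TCA precipitation and 15 min at 65° C. Before that, CHO-K1 cells stably carrying human TDO2 were incubated 2 h with compounds (typically 31 μM to 10 nM) and 80 μM L-tryptophan in HBSS. Decrease versus DMSO vehicle gave percent inhibition, then IC50.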

Human indoleamine 2,3-dioxygenase1 (hIDO1), sequence (P14902 whole entry): as the sequence (P14902 whole entry) above

Nc1oc2c(I)nccc2c1Nc1ccc(F)c(Cl)c1 [Compound 153, N^3-(3-Chloro-4-fluorophenyl)-7-iodofuro[2,3-c]pyridine-2,3-diamine] gave an IC50 [1] of less than 200 nM, an IC50 (IDO1 in HeLa cells) of less than 200 nM and an IC50 [2] of less than 500 nM.
In the case of Nc1oc2c(-c3ccnc(N4CCOCC4)c3)nccc2c1Nc1ccc(F)c(Cl)c1 [Compound 154, N^3-(3-Chloro-4-fluorophenyl)-7-(2-morpholinopyridin-4-yl)furo[2,3-c]pyridine-2,3-diamine], the IC50 [1] is reported as less than 200 nM, the IC50 (IDO1 in HeLa cells) is reported as less than 200 nM and the IC50 [2] is reported as greater than 2000 nM.
Cc1cc(-c2nccc3c(Nc4ccc(F)c(Cl)c4)c(N)oc23)ccn1 [Compound 158, N^3-(3-chloro-4-fluorophenyl)-7-(2-methylpyridin-4-yl)furo[2,3-c]pyridine-2,3-diamine] showed an IC50 [1] of less than 200 nM, an IC50 (IDO1 in HeLa cells) of less than 200 nM and an IC50 [2] of 500 to 2000 nM.
In the case of Nc1oc2c(Br)nccc2c1Nc1ccc(F)c(Cl)c1 [Compound 159, 7-Bromo-N^3-(3-chloro-4-fluorophenyl)furo[2,3-c]pyridine-2,3-diamine], the IC50 [1] is reported as less than 200 nM, the IC50 (IDO1 in HeLa cells) is reported as less than 200 nM and the IC50 [2] is reported as less than 500 nM.
For Cc1cc(-c2nccc3c(Nc4ccc(F)c(Cl)c4)c(N)oc23)cc(C)n1 [Compound 164, N^3-(3-Chloro-4-fluorophenyl)-7-(2,6-dimethylpyridin-4-yl)furo[2,3-c]pyridine-2,3-diamine], the IC50 [1] was less than 200 nM, the IC50 (IDO1 in HeLa cells) was less than 200 nM and the IC50 [2] was greater than 2000 nM.
COc1cc2c(Nc3ccc(F)c(Cl)c3)c(N)oc2c(I)n1 [Compound 167, N^3-(3-Chloro-4-fluorophenyl)-7-iodo-5-methoxyfuro[2,3-c]pyridine-2,3-diamine] gave an IC50 [1] of less than 200 nM, an IC50 (IDO1 in HeLa cells) of less than 200 nM and an IC50 [2] greater than 2000 nM.
Compound COc1cc2c(Nc3ccc(F)c(Cl)c3)c(N)oc2c(Br)n1 [Compound 172, 7-Bromo-N^3-(3-chloro-4-fluorophenyl)-5-methoxyfuro[2,3-c]pyridine-2,3-diamine] has an IC50 [1] of less than 200 nM, an IC50 (IDO1 in HeLa cells) of less than 200 nM and an IC50 [2] greater than 2000 nM.
In the case of COc1cc2c(Nc3ccc(F)c(Cl)c3)c(N)oc2c(-c2ccc(C#N)cc2)n1 [Compound 173, 4-(2-Amino-3-((3-chloro-4-fluorophenyl)amino)-5-methoxyfuro[2,3-c]pyridin-7-yl)benzonitrile], the IC50 [1] is reported as less than 200 nM, the IC50 (IDO1 in HeLa cells) is reported as less than 200 nM and the IC50 [2] is reported as greater than 2000 nM.
COc1cc2c(Nc3ccc(F)c(Cl)c3)c(N)oc2c(-c2ccc(F)cc2)n1 [Compound 174, N^3-(3-chloro-4-fluorophenyl)-7-(4-fluorophenyl)-5-methoxyfuro[2,3-c]pyridine-2,3-diamine] gave an IC50 [1] of less than 200 nM, an IC50 (IDO1 in HeLa cells) of 200 to 1000 nM and an IC50 [2] of 500 to 2000 nM.
COc1cc2c(Nc3ccc(F)c(Cl)c3)c(N)oc2c(-c2ccc(C(N)=O)cc2)n1 [Compound 175, 4-(2-amino-3-((3-chloro-4-fluorophenyl)amino)-5-methoxyfuro[2,3-c]pyridin-7-yl)benzamide] was tested, and the IC50 [1] was less than 200 nM, the IC50 (IDO1 in HeLa cells) was less than 200 nM and the IC50 [2] was greater than 2000 nM.
Nc1oc2c(F)nccc2c1Nc1ccc(F)c(Cl)c1 [Compound 176, N^3-(3-chloro-4-fluorophenyl)-7-fluorofuro[2,3-c]pyridine-2,3-diamine] was tested, and the IC50 [1] was less than 200 nM, the IC50 (IDO1 in HeLa cells) was less than 200 nM and the IC50 [2] was less than 500 nM.
Nc1oc2cnc(Cl)cc2c1Nc1ccc(F)c(Cl)c1 [Compound 177, 5-Chloro-N3-(3-chloro-4-fluorophenyl)furo[2,3-c]pyridine-2,3-diamine] gave an IC50 [1] of less than 200 nM, an IC50 (IDO1 in HeLa cells) of less than 200 nM and an IC50 [2] of 500 to 2000 nM.
Work on Nc1oc2cc([N+](=O)[O-])ccc2c1Nc1ccc(F)c(Cl)c1 [Compound 179, N^3-(3-chloro-4-fluorophenyl)-6-nitrobenzofuran-2,3-diamine] yielded an IC50 [1] of less than 200 nM, an IC50 (IDO1 in HeLa cells) of less than 200 nM and an IC50 [2] of 500 to 2000 nM.
Nc1oc2c(-c3ccncc3)nc(F)cc2c1Nc1ccc(F)c(Cl)c1 [Compound 180, N^3-(3-Chloro-4-fluorophenyl)-5-fluoro-7-(pyridin-4-yl)furo[2,3-c]pyridine-2,3-diamine] showed an IC50 [1] of less than 200 nM, an IC50 (IDO1 in HeLa cells) of less than 200 nM and an IC50 [2] of 500 to 2000 nM.
With Nc1oc2cnc(F)cc2c1Nc1ccc(F)c(Cl)c1 [Compound 181, N^3-(3-Chloro-4-fluorophenyl)-5-fluorofuro[2,3-c]pyridine-2,3-diamine] the IC50 [1] was less than 200 nM, the IC50 (IDO1 in HeLa cells) was less than 200 nM and the IC50 [2] was less than 500 nM.
In the case of N#Cc1nccc2c(Nc3ccccc3Cl)c(N)oc12 [Compound 182, 2-Amino-3-((2-chlorophenyl)amino)furo[2,3-c]pyridine-7-carbonitrile], the IC50 [1] is reported as less than 200 nM, the IC50 (IDO1 in HeLa cells) is reported as less than 200 nM and the IC50 [2] is reported as greater than 2000 nM.
For N#Cc1nccc2c(Nc3ccc(F)c(C(F)(F)F)c3)c(N)oc12 [Compound 183, 2-Amino-3-((4-fluoro-3-(trifluoromethyl)phenyl)amino)furo[2,3-c]pyridine-7-carbonitrile], the IC50 [1] was less than 200 nM, the IC50 (IDO1 in HeLa cells) was less than 200 nM and the IC50 [2] was 500 to 2000 nM.
Compound N#Cc1nccc2c(Nc3ccc(F)c(F)c3)c(N)oc12 [Compound 185, 2-Amino-3-((3,4-difluorophenyl)amino)furo[2,3-c]pyridine-7-carbonitrile] has an IC50 [1] of 200 to 1000 nM, an IC50 (IDO1 in HeLa cells) of less than 200 nM and an IC50 [2] of less than 500 nM.
In the case of N#Cc1nccc2c(Nc3cc(F)cc(F)c3)c(N)oc12 [Compound 186, 2-Amino-3-((3,5-difluorophenyl)amino)furo[2,3-c]pyridine-7-carbonitrile], the IC50 [1] is reported as greater than 1000 nM, the IC50 (IDO1 in HeLa cells) is reported as greater than 1000 nM and the IC50 [2] is reported as 500 to 2000 nM.
For Nc1oc2c(-c3ccncc3)nccc2c1Nc1cc(F)cc(F)c1 [Compound 187, N^3-(3,5-Difluorophenyl)-7-(pyridin-4-yl)furo[2,3-c]pyridine-2,3-diamine], the IC50 [1] was 200 to 1000 nM, the IC50 (IDO1 in HeLa cells) was less than 200 nM and the IC50 [2] was less than 500 nM.
Compound Nc1oc2c(-c3ccncc3)nc(F)cc2c1Nc1ccc(F)c(F)c1 [Compound 188, N^3-(3,4-Difluorophenyl)-5-fluoro-7-(pyridin-4-yl)furo[2,3-c]pyridine-2,3-diamine] has an IC50 [1] of less than 200 nM, an IC50 (IDO1 in HeLa cells) of less than 200 nM and an IC50 [2] of 500 to 2000 nM.
For Nc1oc2c(F)nccc2c1Nc1ccc(F)c(C(F)(F)F)c1 [Compound 189, 7-Fluoro-N^3-(4-fluoro-3-(trifluoromethyl)phenyl)furo[2,3-c]pyridine-2,3-diamine], the IC50 [1] was less than 200 nM, the IC50 (IDO1 in HeLa cells) was less than 200 nM and the IC50 [2] was 500 to 2000 nM.
Work on Nc1oc2c(F)nc(F)cc2c1Nc1ccc(F)c(Cl)c1 [Compound 190, N^3-(3-Chloro-4-fluorophenyl)-5,7-difluorofuro[2,3-c]pyridine-2,3-diamine] yielded an IC50 [1] of less than 200 nM, an IC50 (IDO1 in HeLa cells) of less than 200 nM and an IC50 [2] of 500 to 2000 nM.
In the case of Nc1oc2c(-c3cc(F)nc(F)c3)nccc2c1Nc1ccc(F)c(Cl)c1 [Compound 191, N^3-(3-Chloro-4-fluorophenyl)-7-(2,6-difluoropyridin-4-yl)furo[2,3-c]pyridine-2,3-diamine], the IC50 [1] is reported as less than 200 nM, the IC50 (IDO1 in HeLa cells) is reported as less than 200 nM and the IC50 [2] is reported as 500 to 2000 nM.
Nc1oc2c(-c3ccncc3)nccc2c1Nc1ccc(F)c(C(F)(F)F)c1 [Compound 192, N^3-(4-Fluoro-3-(trifluoromethyl)phenyl)-7-(pyridin-4-yl)furo[2,3-c]pyridine-2,3-diamine] gave an IC50 [1] of less than 200 nM, an IC50 (IDO1 in HeLa cells) of less than 200 nM and an IC50 [2] of 500 to 2000 nM.
In the case of CNC(=O)c1cc(-c2nccc3c(Nc4ccc(F)c(Cl)c4)c(N)oc23)ccn1 [Compound 195, 4-(2-Amino-3-((3-chloro-4-fluorophenyl)amino)furo[2,3-c]pyridin-7-yl)-N-methylpicolinamide], the IC50 [1] is reported as less than 200 nM, the IC50 (IDO1 in HeLa cells) is reported as less than 200 nM and the IC50 [2] is reported as 500 to 2000 nM.
Work on COc1ccccc1-c1nccc2c(Nc3ccc(F)c(F)c3)c(N)oc12 [Compound 196, N^3-(3,4-Difluorophenyl)-7-(2-methoxyphenyl)furo[2,3-c]pyridine-2,3-diamine] yielded an IC50 [1] of 200 to 1000 nM, an IC50 (IDO1 in HeLa cells) of less than 200 nM and an IC50 [2] of less than 500 nM.
In the case of Nc1oc2c(-c3ccccc3Cl)nccc2c1Nc1ccc(F)c(F)c1 [Compound 197, 7-(2-Chlorophenyl)-N^3-(3,4-difluorophenyl)furo[2,3-c]pyridine-2,3-diamine], the IC50 [1] is reported as less than 200 nM, the IC50 (IDO1 in HeLa cells) is reported as less than 200 nM and the IC50 [2] is reported as less than 500 nM.
Compound Cc1cc(-c2nccc3c(Nc4ccc(F)c(F)c4)c(N)oc23)ccn1 [Compound 198, N^3-(3,4-Difluorophenyl)-7-(2-methylpyridin-4-yl)furo[2,3-c]pyridine-2,3-diamine] has an IC50 [1] of less than 200 nM, an IC50 (IDO1 in HeLa cells) of less than 200 nM and an IC50 [2] of less than 500 nM.
Nc1oc2c(-c3cccc(C(F)(F)F)c3)nccc2c1Nc1ccc(F)c(Cl)c1 [Compound 199, N^3-(3-Chloro-4-fluorophenyl)-7-(3-(trifluoromethyl)phenyl)furo[2,3-c]pyridine-2,3-diamine] gave an IC50 [1] of less than 200 nM, an IC50 (IDO1 in HeLa cells) of less than 200 nM and an IC50 [2] greater than 2000 nM.
With Nc1oc2c(N(c3ccccc3)c3ccccc3)nccc2c1Nc1ccc(F)c(Cl)c1 [Compound 200, N^3-(3-Chloro-4-fluorophenyl)-N^7,N^7-diphenylfuro[2,3-c]pyridine-2,3,7-triamine] the IC50 [1] was 200 to 1000 nM, the IC50 (IDO1 in HeLa cells) was less than 200 nM and the IC50 [2] was greater than 2000 nM.
Nc1oc2c(-c3ccncc3)nccc2c1Nc1ccc(F)cc1 [Compound 201, N^3-(4-Fluorophenyl)-7-(pyridin-4-yl)furo[2,3-c]pyridine-2,3-diamine] gave an IC50 [1] of less than 200 nM, an IC50 (IDO1 in HeLa cells) of less than 200 nM and an IC50 [2] of less than 500 nM.
